System: HCT 116 cells
Test: Antiproliferative activity in HCT 116 human colon cancer cells (XTT)
Type: cell-based
Details: 72 hours incubation with compound, XTT absorbance 490 nm minus 655 nm, read-out: GI50 (concentration of 50% proliferation inhibition)
Method: HCT 116 cells (ATCC No.: CCL-247) were placed on a 96-well microliter plate (Nunc, 167008) at a density of 1×10^3 cells/well. The plate was incubated in a 5% CO2 incubator at 37° C. for 24 hours, and then to the plate was added test compounds diluted stepwise to […] in total, and the plate was further incubated in a 5% CO2 incubator at 37° C. for 72 hours. To the culture medium, the XTT (sodium 3′-[1-(phenylaminocarbonyl)-3,4-tetrazolium)-bis(4-methoxy-6-nitro)benzenesulfonic acid hydrate) labeling mixture (Roche Diagnostics, 1465015) was dispensed in […] portions, then the plate was incubated in a 5% CO2 incubator at 37° C. for 1 hour, and the absorbance was measured at 490 nm and 655 nm with a microplate spectrophotometer (Bio-Rad, Model 550). The inhibitory activity against cell proliferation was shown as a concentration of 50% proliferation inhibition, GI50.
GI50 calculation method: The value (difference in absorbance) was calculated by subtracting the absorbance at 655 nm from the absorbance at 490 nm of each well. […]

GI50 [nM]	SMILES
480	CC(=O)N(C)C1=NN(C(C)=O)C(C)(c2ccccc2)S1 (centres unmarked) [Compound 7]
1000	CC(=O)NC1=NN(C(C)=O)C(C)(c2ccccc2)S1 (centres unmarked) [Compound 1]

Reference: US7902234B2, “Thiadiazoline derivative” (Kyowa Hakko Kirin Co., Ltd., priority 2001, dated 2011)
